Data from the NIST ThermoML archive (doi:10.1016/j.fluid.2014.10.004).

Columns and labels:
[1] = xn = mol fraction of the nth substance listed; conditions: 101.3 kPa, Liquid, Sing-around technique in a fixed-path interferometer
[2] = refractive index (Na D-line) (dimensionless); xn = mol fraction of the nth substance listed; conditions: 101.3 kPa, Liquid, Standard Abbe refractometry
[3] = refractive index (Na D-line) (dimensionless); conditions: 101.33 kPa, Liquid, Standard Abbe refractometry
[4] = 101.3 kPa, Liquid, Sing-around technique in a fixed-path interferometer

CC(Cl)(Cl)Cl [1,1,1-trichloroethane] + C[N+](=O)[O-]
Conditions	refractive index, 298.15 K	refractive index, 308.15 K	refractive index, 318.15 K	speed of sound, 298.15 K [m/s]	speed of sound, 308.15 K [m/s]	speed of sound, 318.15 K [m/s]
[1], x1 = 0.0921	–	–	–	1258.6	1219.9	1181.4
[1], x1 = 0.1727	–	–	–	1211.5	1173.7	1136
[1], x1 = 0.2614	–	–	–	1166.3	1129.1	1092.1
[1], x1 = 0.3951	–	–	–	1109.8	1073.5	1037.3
[1], x1 = 0.4862	–	–	–	1079.3	1043.4	1007.6
[1], x1 = 0.5904	–	–	–	1048.7	1013.2	977.89
[1], x1 = 0.7066	–	–	–	1019.3	984.72	949.76
[1], x1 = 0.8358	–	–	–	992.76	957.84	923.21
[1], x1 = 0.9012	–	–	–	980.43	945.74	911.39
[1], x1 = 1	–	–	–	962.94	928.68	894.71
[2], x1 = 0.0921	1.38777	1.38231	1.37702	–	–	–
[2], x1 = 0.1727	1.39427	1.38809	1.38239	–	–	–
[2], x1 = 0.2614	1.4006	1.39442	1.3887	–	–	–
[2], x1 = 0.3951	1.40894	1.40268	1.39695	–	–	–
[2], x1 = 0.4862	1.41396	1.40768	1.40208	–	–	–
[2], x1 = 0.5904	1.41903	1.41302	1.40727	–	–	–
[2], x1 = 0.7066	1.42412	1.41834	1.41249	–	–	–
[2], x1 = 0.8358	1.42923	1.42338	1.41753	–	–	–
[2], x1 = 0.9012	1.43156	1.42575	1.41987	–	–	–
[2], x1 = 1	1.43492	1.42908	1.42311	–	–	–

ClCCCl [1,2-dichloroethane]
Conditions	refractive index, 298.15 K	refractive index, 308.15 K	refractive index, 318.15 K	speed of sound, 298.15 K [m/s]	speed of sound, 308.15 K [m/s]	speed of sound, 318.15 K [m/s]
[3]	1.44206	1.43661	1.43109	–	–	–
[4]	–	–	–	1194.4	1156.1	1117.8
